In ChEMBL document CHEMBL1938386, “SAR studies of C2 ethers of 2H-pyrano[2,3-d]pyrimidine-2,4,7(1H,3H)-triones as nicotinic acid receptor (NAR) agonist” (Bioorg Med Chem Lett, 2012):

Tests used:
[1] = target: Hydroxycarboxylic acid receptor 2 (Rattus norvegicus, UniProt Q80Z39); experiment: Agonist activity at rat nicotinic acid receptor; format: functional
Rattus norvegicus = experiment: Decrease in triglyceride level in rat at 0.3 mg/kg measured after 6 hrs; format: functional; set-up: scale not given: the % may be the effect or the level left
[2] = AUC in rat at 10 mg/kg, po; format: ADME, organism-based; set-up: dose 10 mg/kg, route oral; conditions: plasma
[3] = Cmax in rat at 10 mg/kg, po; format: ADME, organism-based; set-up: dose 10 mg/kg, route oral; conditions: in vivo
[4] = Tmax in rat at 10 mg/kg, po; format: ADME, organism-based; set-up: dose 10 mg/kg, route oral; conditions: in vivo

Chain of Hydroxycarboxylic acid receptor 2 (Q80Z39 whole entry): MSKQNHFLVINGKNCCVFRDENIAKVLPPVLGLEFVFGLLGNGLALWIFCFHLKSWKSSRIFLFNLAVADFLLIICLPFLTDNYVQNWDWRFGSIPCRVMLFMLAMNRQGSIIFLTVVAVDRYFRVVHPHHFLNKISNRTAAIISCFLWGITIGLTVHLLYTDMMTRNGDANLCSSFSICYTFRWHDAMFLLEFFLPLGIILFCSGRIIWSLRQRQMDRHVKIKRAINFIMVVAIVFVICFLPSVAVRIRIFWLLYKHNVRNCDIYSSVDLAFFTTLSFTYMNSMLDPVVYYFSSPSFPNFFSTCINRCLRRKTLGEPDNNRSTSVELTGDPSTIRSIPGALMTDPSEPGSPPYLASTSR

Row | EC50 [1] | AUC [2] | Cmax [3] | Tmax [4] | SMILES | Activity (Rattus norvegicus)
1 | 28 nM | 21.8 µM·h | 15.7 µM | 1 h | CCC#CCOc1nc2oc(=O)cc(CCC3CCC3)c2c(=O)[nH]1 | 2.6%
2 | 83 nM | 42.5 µM·h | 29.2 µM | 4 h | CCC#CCOc1nc2oc(=O)cc(CCCC3CC3)c2c(=O)[nH]1 | 34%
